# In patent US12221418B2 (EYE HOSPITAL, WENZHOU MEDICAL UNIVERSITY, priority 2021, dated 2025):
# Experiments:
# [1] = test system: primary human corneal epithelial cells; test: Hypertonic inflammatory cell model, RT-PCR of inflammation-related cytokine mRNA; assay type: cell-based; details: Ps<0.01
# Method: Primary human cell culture: the remaining limbus of the donor cornea used in a surgery was treated with an ophthalmic instrument into a tissue block carrying corneal stem cells, the tissue block was pasted at the bottom of a cell culture dish, cultured in an SHEM medium, and placed in a cell culture incubator with a temperature of 37° C., CO2 content of 5% and humidity of 90%; primary human corneal epithelial cells crawling out of the limbal stem cells can be seen after 3-5 days; and the cells were grown to a fused state of 70%-90% for an experiment.
# Preparation of solution: (1) preparation of hypertonic liquid (500 mOsm): 90 mmol/L NaCl solution was added to a serum-free medium. (2) Preparation of a tested drug solution: 10 mg of the above prepared product was dissolved in 1 mL of 37° C. DMSO solution, prepared into […] mother liquor, and stored in a −20° C. refrigerator for later use; and the mother liquor was diluted with a serum-free medium to prepare drug solutions having final concentrations of 1 μmol/L and 10 μmol/L for an experiment. […]
# (§1) Real-time PCR (RT-PCR): mRNA expressions of different groups of IL-6, IL-1β, IL-17A, IL-18, TNF-α, and NLRP3 were detected using RT-PCR. […] RNA was extracted from the cells according to an instruction of an RNA extraction kit, and a total amount of RNAs required to synthesize a cDNA template was calculated based on a measured concentration. cDNA was synthesized by an M-MLV reverse transcription kit, and the cDNA obtained by reverse transcription was stored at −20° C. for subsequent PCR amplification. […]
# (§2) A SYBR Green fluorescent dye method was used for RT-PCR detection. A relatively quantified mRNA expression quantity of a target gene was calculated. […]
# Real-time PCR (RT-PCR): mRNA expressions of different groups of IL-6, IL-1β, IL-17A, IL-18, TNF-α, and NLRP3 were detected using RT-PCR. […]
# [2] = test system: SV40 corneal epithelial cells; test: as above; assay type: cell-based, human; details: hypertonic model 500 mOsm, four hours of administration, vs. HS group, Ps<0.01
# Method: SV40 cell culture: SV40 cells were cultured in a DMEM/F12 medium containing 10% fetal bovine serum, and added with insulin and a human epidermal growth factor at the same time, so that a final concentration of insulin in the medium was 5 μg/mL and a final concentration of the human epidermal growth factor was 10 ng/mL. The medium was routinely subcultured in a cell culture incubator with a temperature of 37° C., CO2 content of 5% and a humidity of 90%. The cells were grown to a fused state of 70%-90% for an experiment.
# Preparation of solution: (1) preparation of hypertonic liquid (500 mOsm): 90 mmol/L NaCl solution was added to a serum-free medium. […]
# as §1, §2
# [3] = Stability in high humidity environment (moisture absorption weight gain); assay type: physicochemical; details: 25° C., RH90%±5%
# Method: A moisture absorption gain ratio was calculated.
# [4] = Photo- and thermal stability in the solvent, HPLC
# [5] = pH 7.5
structure (smiles),measurement,setting,value
"CC(C)(O)c1ccccc1CC[C@@H](SCC1(CC(=O)[O-])CC1)c1cccc(/C=C/c2ccc3ccc(Cl)cc3n2)c1.COc1ccc2cc3[n+](cc2c1OC)CCc1cc2c(cc1-3)OCO2 [Montelukast berberine double salt, (R,E)-2-(1-(((1-(3-(2-(7-chloroquinoline-2-yl)vinyl)phenyl)-3-(2-(2-hydroxypropyl-2-yl)phenyl)propyl)thio)methyl)cyclopropyl)acetic acid and 9,10-dimethoxy-5,6-dihydro-[1,3]dioxocyclo [4,5-g]isoquino[3,2-a]isoquinolin-7-onium conjugate]",inflammation-related cytokines (mRNA expression),"[1]; 0.5 μmol/L, compared with single drug of berberine and montelukast of the same concentration",significantly reduce
same,inflammation-related cytokines (mRNA expression),"[1]; 1 μmol/L, hypertonic model 500 mOsm, four hours of administration, vs. HS group",significantly reduce
same,inflammation-related cytokines (mRNA expression),"[1]; 10 μmol/L, hypertonic model 500 mOsm, four hours of administration, vs. HS group",significantly reduce
same,inflammation-related cytokines (mRNA expression),[2]; 1 μmol/L,significantly reduce
same,inflammation-related cytokines (mRNA expression),[2]; 10 μmol/L,significantly reduce
same,Weight gain percentage of Day 5 (%),[3],3.3%
same,Weight gain percentage of Day 10 (%),[3],4.9%
CC(C)(O)c1ccccc1CC[C@@H](SCC1(CC(=O)O)CC1)c1cccc(/C=C/c2ccc3ccc(Cl)cc3n2)c1 [Montelukast],Weight gain percentage of Day 5 (%),[3],4.5%
same,Weight gain percentage of Day 10 (%),[3],5.3%
COc1ccc2cc3[n+](cc2c1OC)CCc1cc2c(cc1-3)OCO2 [Berberine base],Weight gain percentage of Day 5 (%),[3],4.2%
same,Weight gain percentage of Day 10 (%),[3],6.7%
same,C,[4]; 0:00,24.45 µg/mL
same,Purity,[4]; 0:00,97.35%
same,C,"[4]; 40° C. (in dark place), 8:00",22.62 µg/mL
same,Purity,"[4]; 40° C. (in dark place), 8:00",97.17%
same,C,"[4]; 40° C. (in dark place), Day 5",22.41 µg/mL
same,Purity,"[4]; 40° C. (in dark place), Day 5",97.02%
same,C,"[4]; 40° C. (in dark place), Day 10",10.35 µg/mL
same,Purity,"[4]; 40° C. (in dark place), Day 10",96.86%
same,C,"[4]; 60° C. (in dark place), 8:00",22.45 µg/mL
same,Purity,"[4]; 60° C. (in dark place), 8:00",97.17%
same,C,"[4]; 60° C. (in dark place), Day 5",21.31 µg/mL
same,Purity,"[4]; 60° C. (in dark place), Day 5",96.96%
same,C,"[4]; 60° C. (in dark place), Day 10",9.68 µg/mL
same,Purity,"[4]; 60° C. (in dark place), Day 10",95.99%
same,C,"[4]; Illumination, 8:00",21.84 µg/mL
same,Purity,"[4]; Illumination, 8:00",97.62%
same,C,"[4]; Illumination, Day 5",14.70 µg/mL
same,Purity,"[4]; Illumination, Day 5",88.52%
same,C,"[4]; Illumination, Day 10",7.02 µg/mL
same,Purity,"[4]; Illumination, Day 10",74.89%
same,Concentration in solvent,[5],24450 ng/mL
